From patent US10377791B2, “Therapeutically active estratrienthiazole derivatives as inhibitors of 17 B-hydroxysteroid dehydrogenase, type 1” (FORENDO PHARMA LTD, priority 2013, dated 2019) come the findings set out here.

Each structure is given as a SMILES string. Where two headings read alike, the source gives them in different places.

The target of assay [1] is T1, recombinant human 17β-HSD1 (Homo sapiens, UniProt P14061).
T1 construct: made in house; host or cells: Sd9 (Sf9) insect cells, baculovirus (Bac to Bac Expression System)
T1 sequence (P14061 1-328): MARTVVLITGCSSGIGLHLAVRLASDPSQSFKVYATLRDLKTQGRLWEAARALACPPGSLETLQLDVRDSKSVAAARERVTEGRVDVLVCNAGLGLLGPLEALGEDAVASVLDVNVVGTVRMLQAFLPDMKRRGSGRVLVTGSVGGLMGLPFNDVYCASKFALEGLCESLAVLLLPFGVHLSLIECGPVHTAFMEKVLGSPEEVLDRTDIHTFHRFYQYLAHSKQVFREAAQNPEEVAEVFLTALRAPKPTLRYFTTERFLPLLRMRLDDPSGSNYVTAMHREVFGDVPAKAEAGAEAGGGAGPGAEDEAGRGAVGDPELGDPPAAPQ
Nature of the assay: Inhibition of recombinant human 17β-HSD1. Format: biochemical. As to conditions: read-out: 17β-HDS1 Inhibition % at 1 μM. The procedure: Recombinant baculovirus was generated by the “Bac to Bac Expression System” (Invitrogen). Recombinant bacmid was transfected to Sd9 insect cells using “Cellfectin Reagent” (Invitrogen). 60 h later cells were harvested; the microsomal fraction was isolated as described by Puranen, T. J., Poutanen, M. H., Peltoketo, H. E., Vihko, P. T. and Vihko, R. K. (1994) Site-directed mutagenesis of the putative active site of human 17 β-hydroxysteroid dehydrogenase type 1. Biochem. J. 304: 289-293. Aliquots were stored frozen until determination of enzymatic activity.
Recombinant protein (1 μg/ml) was incubated in 20 mM KH2PO4 pH 7.4 with 30 nM estrone (including 800 000 cpm/ml of ^3H-estrone) and 1 mM NADPH for 30 min at RT, in the presence of the potential inhibitor at concentrations 1 μM or 0.1 μM. Inhibitor stock solutions were prepared in DMSO. Final concentration of DMSO was adjusted to 1% in all samples. The enzyme reaction was stopped by addition of 10% trichloroacetic acid (final concentration). Samples were centrifuged in a microtiter plate at 4000 rpm for 10 min. Supernatants were applied to reverse phase HPLC on a Waters Symmetry C18 column, equipped with a Waters Sentry Guard column. Isocratic HPLC runs were performed at RT at a flow rate of 1 ml/min in acetonitrile:water 48:52 as running solvent. Radioactivity was monitored in the eluate by a Packard Flow Scintillation Analyzer. Total radioactivity for estrone and estradiol were determined in each sample and percent conversion of estrone to estradiol was calculated according to the following formula:
(§1) [formula] Percent inhibition was calculated flowingly: % inhibition=100−% conversion

In assay [2] the target is T2, recombinant human 17β-HSD2 (Homo sapiens, UniProt P37059).
T2 construct: made in house; host or cells: Sd9 (Sf9) insect cells, baculovirus (Bac to Bac Expression System)
T2 sequence (P37059 1-387): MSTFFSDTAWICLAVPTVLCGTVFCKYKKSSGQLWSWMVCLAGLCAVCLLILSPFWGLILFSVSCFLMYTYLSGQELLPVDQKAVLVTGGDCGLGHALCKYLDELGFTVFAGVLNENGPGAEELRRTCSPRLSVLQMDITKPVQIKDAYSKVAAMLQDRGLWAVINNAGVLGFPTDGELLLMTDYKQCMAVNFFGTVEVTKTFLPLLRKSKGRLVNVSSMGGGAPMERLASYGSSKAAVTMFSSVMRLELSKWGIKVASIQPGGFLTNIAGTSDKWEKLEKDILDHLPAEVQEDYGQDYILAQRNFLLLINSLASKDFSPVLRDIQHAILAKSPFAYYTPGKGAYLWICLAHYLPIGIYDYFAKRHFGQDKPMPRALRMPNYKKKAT
Nature of the assay: Inhibition of recombinant human 17β-HSD2. Format: biochemical. As to conditions: read-out: 17β-HSD2 Inhibition % at 1 μM. The procedure: Similarly to 17β-HSD1 the Recombinant baculovirus was generated by the “Bac to Bac Expression System” (Invitrogen). Recombinant bacmid was transfected to Sd9 insect cells using “Cellfectin Reagent” (Invitrogen). 60 h later cells were harvested and supernatant were fractionated by the following protocol: • cells were dissolved into 40 ml of A-buffer (40 mM TRIS, pH8.0, 20% glycerol, 20 μM NAD, 0.4 mM PMSF, 150 mM NaCl, 0.5% dodecyl-β-maltoside+protease inhibitor cocktail) • cells were sonicated • lysate was incubated on ice for 15 min • lysate was centrifuged 5000 rpm 15 min, +4° C. • centrifugation of the supernatant 180 000 g 30 min, +4° C. • pellet was dissolved into 8 ml of A-buffer • not resuspended material was removed by centrifugation 5000 rpm 15 min, +4° C. • the clear supernatant was divided into 100 μl aliquots and were stored frozen until determination of enzymatic activity.
The amount of 17β-HSD2 was analysed by immunoblotting and total protein concentration of each extract batch was determined.
Recombinant protein (4 μg/ml) was incubated in 20 mM KH2PO4 pH 8.5 with 50 nM estradiol (including 800 000 cpm/ml of ^3H-estradiol) and 1 mM NADH for 30 min at RT, in the presence of the potential inhibitor at concentrations 1 μM or 0.1 μM. Inhibitor stock solutions were prepared in DMSO. Final concentration of DMSO was adjusted to 1% in all samples. The enzyme reaction was stopped by addition of 10% trichloroacetic acid (final concentration). Samples were centrifuged in a microtiter plate at 4000 rpm for 10 min. Supernatants were applied to reverse phase HPLC on a Waters Symmetry C18 column, equipped with a Waters Sentry Guard column. Isocratic HPLC runs were performed at RT at a flow rate of 1 ml/min in acetonitrile:water 48:52 as running solvent. Radioactivity was monitored in the eluate by a Packard Flow Scintillation Analyzer. Total radioactivity for estrone and estradiol were determined in each sample and percent conversion of estradiol to estrone was calculated according to the following formula:
as §1

[3] abbreviates: inhibitor at 1 μM, 30 nM estrone, 1 mM NADPH, 30 min at RT.
The mark [4] stands for this setting: inhibitor at 1 μM, 50 nM estradiol, 1 mM NADH, 30 min at RT.

On to `Cc1cnc(NC(=O)CC[C@@H]2CC(=O)[C@@]3(C)CCC4c5ccc(OS(C)(=O)=O)c(N)c5CCC4C23)s1` (stereo partly drawn) [Compound 40, (13S,15R)-4-amino-13-methyl-15-(3-((5-methylthiazol-2-yl)amino)-3-oxopropyl)-17-oxo-7,8,9,11,12,13,14,15,16,17-decahydro-6H-cyclopenta[a]phenanthren-3-yl methanesulfonate], for which the inhibition at 1 µM worked out at 75% in assay [1] (setting [3]) and 1% in assay [2] (setting [4]).
For `CC(=O)Oc1cc2c(cc1F)C1CC[C@]3(C)C(=O)C[C@@H](CCC(=O)Nc4ncc(C)s4)C3C1CC2` (stereo partly drawn) [Compound 69, (13S,15R)-2-fluoro-13-methyl-15-(3-((5-methylthiazol-2-yl)amino)-3-oxopropyl)-17-oxo-7,8,9,11,12,13,14,15,16,17-decahydro-6H-cyclopenta[a]phenanthren-3-yl acetate], in that order: 57% and 4%.
The corresponding values for `Cc1cnc(NC(=O)CC[C@@H]2CC(=O)[C@@]3(C)CCC4c5cc(O)c(O)cc5CCC4C23)s1` (stereo partly drawn) [Compound 68, 3-((13S,15R)-2,3-dihydroxy-13-methyl-17-oxo-7,8,9,11,12,13,14,15,16,17-decahydro-6H-cyclopenta[a]phenanthren-15-yl)-N-(5-methylthiazol-2-yl)propanamide] are 88% and 3%.
For the compound `Cc1cnc(NC(=O)CC[C@@H]2CC(=O)[C@@]3(C)CCC4c5cc([N+](=O)[O-])c(O)c([N+](=O)[O-])c5CCC4C23)s1` (stereo partly drawn) [Compound 36, 3-((13S,15R)-3-hydroxy-13-methyl-2,4-dinitro-17-oxo-7,8,9,11,12,13,14,15,16,17-decahydro-6H-cyclopenta[a]phenanthren-15-yl)-N-(5-methylthiazol-2-yl)propanamide], the inhibition at 1 µM in assay [1] is 87%; in assay [2], 33%.
In the case of `Cc1cnc(NC(=O)CC[C@@H]2CC(=O)[C@@]3(C)CCC4c5ccc6ocnc6c5CCC4C23)s1` (stereo partly drawn) [Compound 46, 3-((7aS,10R)-7a-methyl-8-oxo-6,7,7a,8,9,10,10a,10b,11,12-decahydro-5bH-cyclopenta[7,8]phenanthro[1,2-d]oxazol-10-yl)-N-(5-methylthiazol-2-yl)propanamide], the inhibition at 1 µM is 87% in assay [1] (setting [3]) and 3% in assay [2] (setting [4]).
Consider `Cc1cnc(NC(=O)CC[C@@H]2CC(=O)[C@@]3(C)CCC4c5cc6ncoc6c(Cl)c5CCC4C23)s1` (stereo partly drawn) [Compound 77, 3-((3R,12aS)-6-chloro-12a-methyl-1-oxo-2,3,3a,3b,4,5,10b,11,12,12a-decahydro-1H-cyclopenta[7,8]phenanthro[3,2-d]oxazol-3-yl)-N-(5-methylthiazol-2-yl)propanamide], for which the inhibition at 1 µM in assay [1] (setting [3]) amounted to 87%; in assay [2] (setting [4]), 0%.
For `Cc1cnc(NC(=O)CC[C@@H]2CC(=O)[C@@]3(C)CCC4c5cc(F)c(O)cc5CCC4C23)s1` (stereo partly drawn) [Compound 67, 3-((13S,15R)-2-fluoro-3-hydroxy-13-methyl-17-oxo-7,8,9,11,12,13,14,15,16,17-decahydro-6H-cyclopenta[a]phenanthren-15-yl)-N-(5-methylthiazol-2-yl)propanamide], in that order: 98% and 6%.
As to `Cc1ccc(S(=O)(=O)Oc2ccc3c(c2)CCC2C3CC[C@]3(C)C(=O)C[C@@H](CCC(=O)Nc4ncc(C)s4)C23)cc1` (stereo partly drawn) [Compound 27, Toluene-4-sulphonic acid (13S,15R)-13-methyl-15-[2-(5-methylthiazol-2-ylcarbamoyl)-ethyl]-17-oxo-7,8,9,11,12,13,14,15,16,17-decahydro-6H-cyclopenta[a]phenanthren-3-yl ester], the inhibition at 1 µM in assay [1] (setting [3]) came out at 81%; in assay [2] (setting [4]), 5%.
For `Cc1cnc(NC(=O)CC[C@@H]2CC(=O)[C@@]3(C)CCC4c5cccc(C(C)(C)C)c5CCC4C23)s1` (stereo partly drawn) [Compound 105, 3-((13S,15R)-4-(tert-butyl)-13-methyl-17-oxo-7,8,9,11,12,13,14,15,16,17-decahydro-6H-cyclopenta[a]phenanthren-15-yl)-N-(5-methylthiazol-2-yl)propanamide], in that order: 90% and 16%.
For the compound `Cc1nc2cc3c(cc2o1)CCC1C3CC[C@]2(C)C(=O)C[C@@H](CCC(=O)Nc3ncc(C)s3)C12` (stereo partly drawn) [Compound 48, 3-((3R,12aS)-8,12a-dimethyl-1-oxo-2,3,3a,3b,4,5,10b,11,12,12a-decahydro-1H-cyclopenta[7,8]phenanthro[3,2-d]oxazol-3-yl)-N-(5-methylthiazol-2-yl)propanamide], the values for the inhibition at 1 µM in assay [1] (setting [3]) and in assay [2] (setting [4]) were 91% and 2%, respectively.
As to `Cc1cnc(NC(=O)CC[C@@H]2CC(=O)[C@@]3(C)CCC4c5cc(I)c(O)c(I)c5CCC4C23)s1` (stereo partly drawn) [Compound 53, 3-((13S,15R)-3-hydroxy-2,4-diiodo-13-methyl-17-oxo-7,8,9,11,12,13,14,15,16,17-decahydro-6H-cyclopenta[a]phenanthren-15-yl)-N-(5-methylthiazol-2-yl)propanamide], the inhibition at 1 µM in assay [1] (setting [3]) came out at 94%; in assay [2] (setting [4]) it was 5%.
The corresponding values for `Cc1cnc(NC(=O)CC[C@@H]2CC(=O)[C@@]3(C)CCC4c5cc(N)ccc5CCC4C23)s1` (stereo partly drawn) [Compound 87, 3-((13S,15R)-2-amino-13-methyl-17-oxo-7,8,9,11,12,13,14,15,16,17-decahydro-6H-cyclopenta[a]phenanthren-15-yl)-N-(5-methylthiazol-2-yl)propanamide] are 87% and 2%.
For `COc1ccc2c(c1)CCC1C2CC[C@]2(C)C(=O)C[C@@H](CCC(=O)Nc3ncc(C)s3)C12` (stereo partly drawn) [Compound X, 3-((13S,15R)-3-Methoxy-13-methyl-17-oxo-7,8,9,11,12,13,14,15,16,17-decahydro-6H-cyclopenta[a]phenanthren-15-yl)-N-(5-methylthiazol-2-yl)propanamide, reference compound], in that order: 96% and 3%.
